Reference: patent publication US7709473B2, “Substituted 2H-[1,2,4]triazolo[4,3-a]pyrazines as GSK-3 inhibitors” (Pfizer Inc., priority 2004, dated 2010)

Target: GSK-3 (Homo sapiens, UniProt P49841)
Experiment: GSK-3 inhibition, cell-free 33P-ATP peptide substrate SPA assay
Assay type: biochemical
Details: read-out: inhibitory activity against GSK-3, expressed as IC50
Description: The specific activities of the compounds of formula (I) in inhibiting GSK-3 can be determined in both cell-free and cell-based assays, both of which have been previously described in the relevant art. See, for example, U.S. Pat. Nos. 6,417,185 and 6,489,344, the disclosures of which are incorporated herein by reference in their entirety.
A cell-free testing assay can be generally carried out by incubating GSK-3 with a peptide substrate, radiolabeled ATP (e.g., for example, γ^33P- or γ^32P-ATP, both of which are available from Amersham; Arlington Heights, Ill.), magnesium ions, and the compound to be assayed. […] The amount of γ^33P or γ^32P remaining in each well after washing is then quantified to determine the amount of radiolabeled phosphate incorporated into the peptide substrate. […]
Another example of a GSK-3 testing assay, similar to the one described hereinabove, is as follows: enzyme activities are assayed as the incorporation of ^33P from the gamma phosphate of ^33P-ATP (Amersham; Arlington Heights, Ill.; catalog #AH-9968) into biotinylated peptide substrate PKTP-KKAKKL. […] The final concentration of ATP is 0.5 μM (final specific radioactivity of 4 μCi/nmol), and the final concentration of substrate is 0.75 μM. […] Radioactivity associated with the beads is then quantified by standard scintillation counting. […]

Sequence of GSK-3 (P49841 whole entry): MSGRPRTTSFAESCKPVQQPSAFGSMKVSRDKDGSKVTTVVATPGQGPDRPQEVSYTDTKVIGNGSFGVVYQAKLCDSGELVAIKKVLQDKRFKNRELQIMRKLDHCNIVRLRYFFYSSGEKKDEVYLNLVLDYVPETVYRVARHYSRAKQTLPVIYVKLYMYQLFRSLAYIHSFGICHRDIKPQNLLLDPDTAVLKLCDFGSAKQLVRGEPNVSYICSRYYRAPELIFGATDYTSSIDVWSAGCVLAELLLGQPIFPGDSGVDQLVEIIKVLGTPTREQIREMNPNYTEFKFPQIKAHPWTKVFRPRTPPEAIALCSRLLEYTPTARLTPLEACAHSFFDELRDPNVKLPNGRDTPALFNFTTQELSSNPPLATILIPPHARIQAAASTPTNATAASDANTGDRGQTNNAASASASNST

- IC50: 4.84 nM
Structure (SMILES): COc1ccc(OCCNc2nc(C(C)(C)C)cn3c(=O)[nH]nc23)cc1 [Example 218, 6-tert-Butyl-8-[2-(4-methoxy-phenoxy)-ethylamino]-2H-[1,2,4]triazolo[4,3-a]pyrazin-3-one]
